Measured values published in US10894036B2, “Use of marizomib for the treatment of central nervous system (CNS) cancers” (Celgene International II Sàrl, priority 2016, dated 2021).

Experiment: Phase 1/2 MRZ + BEV and MRZ monotherapy in recurrent G4 MG: adverse events, DLT
Conditions: for Ataxia: Treatment Related Grade ≥3 AE, # patients / Confusional State: Treatment Related Grade ≥3 AE, # patients / Delusion: Treatment Related Grade ≥3 AE, # patients / Dyspnea: Treatment Related Grade ≥3 AE, # patients / Embolism: Treatment Related Grade ≥3 AE, # patients / Fall: Treatment Related Grade ≥3 AE, # patients / Fatigue: Treatment Related Grade ≥3 AE, # patients / Hallucination: Treatment Related Grade ≥3 AE, # patients / Headache: Treatment Related Grade ≥3 AE, # patients / Hypertension: Treatment Related Grade ≥3 AE, # patients / Hyponatremia: Treatment Related Grade ≥3 AE, # patients / Insomnia: Treatment Related Grade ≥3 AE, # patients / Intracranial Hemorrhage: Treatment Related Grade ≥3 AE, # patients / Optic Nerve Disorder: Treatment Related Grade ≥3 AE, # patients / Proteinuria: Treatment Related Grade ≥3 AE, # patients: attributed to labelled agent
[1] = MRZ 0.7 mg/m^2 + BEV, Cohort 2, N = 3
[2] = MRZ 0.7 mg/m^2 Cohort 2 (N = 3)
[3] = MRZ 0.8 mg/m^2 + BEV N = 27, MRZ 0.8 mg/m^2 monotherapy N = 30
[4] = MRZ 0.8 mg/m^2 + BEV, Cohorts 3 & 4, N = 27
[5] = MRZ 0.8 mg/m^2 + BEV, N = 27, related to the labelled drug
[6] = MRZ 0.8 mg/m^2 Cohorts 3 & 4 (N = 27)
[7] = MRZ 0.8 mg/m^2 monotherapy, N = 30

Description: The clinical trial was a Phase 1, dose-escalation (3+3 design) followed by dose-expansion at recommended Phase 2 Dose (RP2D).
The drugs were infused on 28-Day Cycles. Tumor response is assessed every other cycle by RANO criteria.
The safety data will be presented in individual listings and summary tables, including frequency tables for adverse events and frequency and shift tables for laboratory variables. The safety population will be all subjects who received at least one dose of either study drug in Phase 1 or MRZ in Phase 2.

C[C@@]12OC(=O)[C@]1([C@@H](O)[C@@H]1C=CCCC1)NC(=O)[C@@H]2CCCl [marizomib]
Confusional State, Treatment Related Grade ≥3 AE, patients [1]: 0
Delusion, Treatment Related Grade ≥3 AE, patients [1]: 0
Dyspnea, Treatment Related Grade ≥3 AE, patients [1]: 0
Embolism, Treatment Related Grade ≥3 AE, patients [1]: 0
Fall, Treatment Related Grade ≥3 AE, patients [1]: 0
Fatigue, Treatment Related Grade ≥3 AE, patients [1]: 0
Hallucination, Treatment Related Grade ≥3 AE, patients [1]: 0
Headache, Treatment Related Grade ≥3 AE, patients [1]: 0
Hypertension, Treatment Related Grade ≥3 AE, patients [1]: 0
Hyponatremia, Treatment Related Grade ≥3 AE, patients [1]: 0
Insomnia, Treatment Related Grade ≥3 AE, patients [1]: 0
Intracranial Hemorrhage, Treatment Related Grade ≥3 AE, patients [1]: 0
Optic Nerve Disorder, Treatment Related Grade ≥3 AE, patients [1]: 0
Proteinuria, Treatment Related Grade ≥3 AE, patients [1]: 0
Ataxia, Treatment Related Grade ≥3 AE, patients (MRZ 0.7 mg/m^2 + BEV, Cohort 2, N = 3, related to the labelled drug): 0
Ataxia: Treatment Related Grade ≥3 AE, # patients [2]: 0
Confusional State: Treatment Related Grade ≥3 AE, # patients [2]: 0
Delusion: Treatment Related Grade ≥3 AE, # patients [2]: 0
Dyspnea: Treatment Related Grade ≥3 AE, # patients [2]: 0
Embolism: Treatment Related Grade ≥3 AE, # patients [2]: 0
Fall: Treatment Related Grade ≥3 AE, # patients [2]: 0
Fatigue: Treatment Related Grade ≥3 AE, # patients [2]: 0
Hallucination: Treatment Related Grade ≥3 AE, # patients [2]: 0
Headache: Treatment Related Grade ≥3 AE, # patients [2]: 0
Hypertension: Treatment Related Grade ≥3 AE, # patients [2]: 0
Hyponatremia: Treatment Related Grade ≥3 AE, # patients [2]: 0
Insomnia: Treatment Related Grade ≥3 AE, # patients [2]: 0
Intracranial Hemorrhage: Treatment Related Grade ≥3 AE, # patients [2]: 0
Optic Nerve Disorder: Treatment Related Grade ≥3 AE, # patients [2]: 0
Proteinuria: Treatment Related Grade ≥3 AE, # patients [2]: 0
Fatigue, treatment-related AE, patients (MRZ 0.8 mg/m^2 + BEV Cohorts 3 & 4, N = 27, related to the labelled drug (MRZ + BEV = related to both)): 19 (70.4%)
Patients with at Least One TEAE (MRZ 0.8 mg/m^2 + BEV Cohorts 3 & 4 N = 27, MRZ 0.8 mg/m^2 monotherapy N = 30): 29 (96.7%) ^[1]
Anaemia, adverse event, patients [3]: 6 (20.0%)
Ataxia, adverse event, patients [3]: 6 (20.0%)
Confusional state, adverse event, patients [3]: 7 (23.3%)
Constipation, adverse event, patients [3]: 9 (30.0%)
Diarrhoea, adverse event, patients [3]: 7 (23.3%)
Dizziness, adverse event, patients [3]: 5 (16.7%)
Dysarthria, adverse event, patients [3]: 5 (16.7%)
Dysphonia, adverse event, patients [3]: 1 (3.3%)
Epistaxis, adverse event, patients [3]: 2 (6.7%)
Fall, adverse event, patients [3]: 4 (13.3%)
Fatigue, adverse event, patients [3]: 19 (63.3%)
Hallucination, adverse event, patients [3]: 12 (40.0%)
Headache, adverse event, patients [3]: 12 (40.0%)
Hyperglycaemia, adverse event, patients [3]: 8 (27.6%)
Hypertension, adverse event, patients [3]: 4 (13.3%)
Hypokalemia, adverse event, patients [3]: 8 (27.6%)
Infusion site pain, adverse event, patients [3]: 3 (10.0%)
Insomnia, adverse event, patients [3]: 14 (46.7%)
Nausea, adverse event, patients [3]: 11 (36.7%)
Platelet count decreased, adverse event, patients [3]: 7 (23.3%)
Vomiting, adverse event, patients [3]: 9 (30.0%)
Confusional State, Treatment Related Grade ≥3 AE, patients [4]: 0
Delusion, Treatment Related Grade ≥3 AE, patients [4]: 1
Dyspnea, Treatment Related Grade ≥3 AE, patients [4]: 1
Embolism, Treatment Related Grade ≥3 AE, patients [4]: 0
Fall, Treatment Related Grade ≥3 AE, patients [4]: 1
Fatigue, Treatment Related Grade ≥3 AE, patients [4]: 1
Hallucination, Treatment Related Grade ≥3 AE, patients [4]: 1
Headache, Treatment Related Grade ≥3 AE, patients [4]: 3
Hypertension, Treatment Related Grade ≥3 AE, patients [4]: 0
Hyponatremia, Treatment Related Grade ≥3 AE, patients [4]: 1
Insomnia, Treatment Related Grade ≥3 AE, patients [4]: 1
Intracranial Hemorrhage, Treatment Related Grade ≥3 AE, patients [4]: 0
Optic Nerve Disorder, Treatment Related Grade ≥3 AE, patients [4]: 0
Proteinuria, Treatment Related Grade ≥3 AE, patients [4]: 0
Ataxia, Treatment Related Grade ≥3 AE, patients (MRZ 0.8 mg/m^2 + BEV, Cohorts 3 & 4, N = 27, related to the labelled drug): 1
Anaemia, treatment-related AE, patients [5]: 5 (18.5%)
Ataxia, treatment-related AE, patients [5]: 7 (25.9%)
Confusional state, treatment-related AE, patients [5]: 7 (25.9%)
Constipation, treatment-related AE, patients [5]: 5 (18.5%)
Diarrhoea, treatment-related AE, patients [5]: 8 (29.6%)
Dizziness, treatment-related AE, patients [5]: 8 (29.6%)
Dysphonia, treatment-related AE, patients [5]: 1 (3.7%)
Epistaxis, treatment-related AE, patients [5]: 0 (0.0%)
Fall, treatment-related AE, patients [5]: 3 (11.1%)
Hallucination, treatment-related AE, patients [5]: 12 (44.4%)
Headache, treatment-related AE, patients [5]: 12 (44.4%)
Hypertension, treatment-related AE, patients [5]: 1 (3.7%)
Infusion site pain, treatment-related AE, patients [5]: 4 (14.8%)
Muscular weakness, treatment-related AE, patients [5]: 3 (11.1%)
Nausea, treatment-related AE, patients [5]: 17 (63.0%)
Platelet count decreased, treatment-related AE, patients [5]: 2 (7.4%)
Stomatitis, treatment-related AE, patients [5]: 3 (11.1%)
Upper-airway cough syndrome, treatment-related AE, patients [5]: 0 (0.0%)
Vomiting, treatment-related AE, patients [5]: 15 (55.6%)
Ataxia: Treatment Related Grade ≥3 AE, # patients [6]: 1
Confusional State: Treatment Related Grade ≥3 AE, # patients [6]: 0
Delusion: Treatment Related Grade ≥3 AE, # patients [6]: 1
Dyspnea: Treatment Related Grade ≥3 AE, # patients [6]: 1
Embolism: Treatment Related Grade ≥3 AE, # patients [6]: 0
Fall: Treatment Related Grade ≥3 AE, # patients [6]: 1
Fatigue: Treatment Related Grade ≥3 AE, # patients [6]: 1
Hallucination: Treatment Related Grade ≥3 AE, # patients [6]: 1
Headache: Treatment Related Grade ≥3 AE, # patients [6]: 3
Hypertension: Treatment Related Grade ≥3 AE, # patients [6]: 0
Hyponatremia: Treatment Related Grade ≥3 AE, # patients [6]: 1
Insomnia: Treatment Related Grade ≥3 AE, # patients [6]: 1
Intracranial Hemorrhage: Treatment Related Grade ≥3 AE, # patients [6]: 0
Optic Nerve Disorder: Treatment Related Grade ≥3 AE, # patients [6]: 0
Proteinuria: Treatment Related Grade ≥3 AE, # patients [6]: 0
Anaemia, MRZ related AE, patients [7]: 5 (16.7%
Ataxia, MRZ related AE, patients [7]: 5 (16.7%)
Confusional state, MRZ related AE, patients [7]: 6 (20.0%)
Constipation, MRZ related AE, patients [7]: 6 (20.0%)
Diarrhoea, MRZ related AE, patients [7]: 7 (23.3)
Dizziness, MRZ related AE, patients [7]: 3 (10.0%)
Dysphonia, MRZ related AE, patients [7]: 0
Epistaxis, MRZ related AE, patients [7]: 1 (3.3%)
Fall, MRZ related AE, patients [7]: 1 (3.3%)
Fatigue, MRZ related AE, patients [7]: 18 (60.0%)
Hallucination, MRZ related AE, patients [7]: 11 (36.7%)
Headache, MRZ related AE, patients [7]: 11 (36.7%)
Infusion site pain, MRZ related AE, patients [7]: 2 (6.7%)
Muscular weakness, MRZ related AE, patients [7]: 0
Nausea, MRZ related AE, patients [7]: 9 (30.0%)
Platelet count decreased, MRZ related AE, patients [7]: 0
Stomatitis, MRZ related AE, patients [7]: 0
Upper-airway cough syndrome, MRZ related AE, patients [7]: 0
Vomiting, MRZ related AE, patients [7]: 7 (23.3)
